target: T1, human PTH1 receptor (Homo sapiens, UniProt Q03431); test: In vitro cAMP signal activity in HKRK-B7 cells (LLC-PK1 cells overexpressing the human PTH1 receptor); type: cell-based; settings: HKRK-B7 cells; compound at 1×10^−3 M; cAMP produced as percentage of that produced by hPTH(1-34) at 100 nM
T1 sequence (Q03431 27-593): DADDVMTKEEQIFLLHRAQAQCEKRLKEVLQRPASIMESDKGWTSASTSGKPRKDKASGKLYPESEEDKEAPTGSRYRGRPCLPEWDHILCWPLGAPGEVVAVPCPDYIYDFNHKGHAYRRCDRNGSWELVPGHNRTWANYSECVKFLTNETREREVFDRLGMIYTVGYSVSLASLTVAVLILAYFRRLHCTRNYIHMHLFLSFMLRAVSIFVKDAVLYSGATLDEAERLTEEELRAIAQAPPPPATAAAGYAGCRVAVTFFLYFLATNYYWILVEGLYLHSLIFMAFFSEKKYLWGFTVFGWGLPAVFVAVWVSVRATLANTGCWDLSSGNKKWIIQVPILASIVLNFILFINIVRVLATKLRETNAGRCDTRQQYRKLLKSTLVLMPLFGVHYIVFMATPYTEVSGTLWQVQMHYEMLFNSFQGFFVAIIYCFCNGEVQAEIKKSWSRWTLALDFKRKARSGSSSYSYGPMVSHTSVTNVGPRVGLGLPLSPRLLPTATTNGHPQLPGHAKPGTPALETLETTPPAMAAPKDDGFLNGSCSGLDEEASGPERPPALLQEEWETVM

Row | SMILES | cAMP production activity (%)
1 | CC(=O)N(CCO)c1ccc(/C=C/S(=O)(=O)N2CCC3(CC2)N=C(c2cccc(OC(F)(F)F)c2)NC3=O)c(C)c1 [Compound 232, N-(2-hydroxy-ethyl)-N-(3-methyl-4-{(E)-2-[4-oxo-2-(3-trifluoromethoxy-phenyl)-1,3,8-triaza-spiro[4.5]dec-1-ene-8-sulfonyl]-vinyl}-phenyl)-acetamide] | 69
2 | Cc1cc(C(=O)N2CCC(O)(CF)CC2)cc(C)c1/C=C/S(=O)(=O)N1CCC2(CC1)N=C(c1ccc(F)c(OCCCF)c1)NC2=O [Compound 1264, 2-[4-fluoro-3-(3-fluoro-propoxy)-phenyl]-8-{(E)-2-[4-(4-fluoromethyl-4-hydroxy-piperidine-1-carbonyl)-2,6-dimethyl-phenyl]-ethenesulfonyl}-1,3,8-triaza-spiro[4.5]dec-1-en-4-one] | 77
3 | Cc1cc(C(=O)N2CC[C@@H](N)C2)cc(C)c1/C=C/S(=O)(=O)N1CCC2(CC1)N=C(c1cccc(OC(F)(F)F)c1)NC2=O [Compound 404, 8-{(E)-2-[4-((R)-3-amino-pyrrolidine-1-carbonyl)-2,6-dimethyl-phenyl]-ethenesulfonyl}-2-(3-trifluoromethoxy-phenyl)-1,3,8-triaza-spiro[4.5]dec-1-en-4-one] | 88
4 | Cc1cc(N(C)C(N)=O)cc(C)c1/C=C/S(=O)(=O)N1CCC2(CC1)N=C(c1cccc(-c3cccc(-c4ccccc4)c3)c1)NC2=O [Compound 1157, 1-{3,5-Dimethyl-4-[(E)-2-(4-oxo-2-[1,1′;3′,1″]terphenyl-3-yl-1,3,8-triaza-spiro[4.5]dec-1-ene-8-sulfonyl)-vinyl]-phenyl}-1-methyl-urea] | 44
5 | Cc1cc(N(C)C(N)=O)cc(C)c1/C=C\S(=O)(=O)N1CCC2(CC1)N=C(CCCCCc1ccccc1)NC2=O.O=C(O)C(F)(F)F [Compound 1134, 1-(3,5-dimethyl-4-{(Z)-2-[4-oxo-2-(5-phenyl-pentyl)-1,3,8-triaza-spiro[4.5]dec-1-ene-8-sulfonyl]-vinyl}-phenyl)-1-methyl-urea trifluoroacetate] | 50
6 | O=C(N1CCCCC1)N1CCCC(C2=NC3(CCN(S(=O)(=O)c4cccc(Cl)c4)CC3)C(=O)N2)C1 (stereo not drawn) [Compound 456, 8-(3-Chloro-benzenesulfonyl)-2-[1-(piperidine-1-carbonyl)-piperidin-3-yl]-1,3,8-triaza-spiro[4.5]dec-1-en-4-one] | 28
7 | Cc1cc(C(=O)N(C)C)ccc1CCS(=O)(=O)N1CCC2(CC1)N=C(c1cccc3c1OC(F)(F)O3)NC2=O [Compound 92, 4-{2-[2-(2,2-difluoro-benzo[1,3]dioxol-4-yl)-4-oxo-1,3,8-triaza-spiro[4.5]dec-1-ene-8-sulfonyl]-ethyl}-3,N,N-trimethyl-benzamide] | 97
8 | CC(=O)N(CCO)c1ccc(CCS(=O)(=O)N2CCC3(CC2)N=C(c2cccc(OC(F)(F)F)c2)NC3=O)c(C)c1 [Compound 149, N-(2-Hydroxy-ethyl)-N-(3-methyl-4-{2-[4-oxo-2-(3-trifluoromethoxy-phenyl)-1,3,8-triaza-spiro[4.5]dec-1-ene-8-sulfonyl]-ethyl}-phenyl)-acetamide] | 56
9 | Cc1cc(C(=O)N(C)C)ccc1-c1ccc(S(=O)(=O)N2CCC3(CC2)N=C(c2ccc(F)c(C(F)(F)F)c2)NC3=O)s1 [Compound 333, 4-{5-[2-(4-fluoro-3-trifluoromethyl-phenyl)-4-oxo-1,3,8-triaza-spiro[4.5]dec-1-ene-8-sulfonyl]-thiophen-2-yl}-3,N,N-trimethyl-benzamide] | 87
10 | O=C(N1CCOCC1)n1ccc2c(/C=C/S(=O)(=O)N3CCC4(CC3)N=C(C3CCCCC3)NC4=O)cccc21 [Compound 477, 2-cyclohexyl-8-{(E)-2-[1-(morpholine-4-carbonyl)-1H-indol-4-yl]-ethenesulfonyl}-1,3,8-triaza-spiro[4.5]dec-1-en-4-one] | 31
11 | COC(=O)N1CCCC(C2=NC3(CCN(S(=O)(=O)c4cccc(Cl)c4)CC3)C(=O)N2)C1 (stereo not drawn) [Compound 463, 3-[8-(3-chloro-benzenesulfonyl)-4-oxo-1,3,8-triaza-spiro[4.5]dec-1-en-2-yl]-piperidine-1-carboxylic acid methyl ester] | 28
12 | Cc1cc(C(=O)N(C)C)ccc1CCS(=O)(=O)N1CCC2(CC1)N=C(c1ccc(OC(F)(F)C(F)F)cc1)NC2=O [Compound 94, 3,N,N-trimethyl-4-(2-{4-oxo-2-[4-(1,1,2,2-tetrafluoro-ethoxy)-phenyl]-1,3,8-triaza-spiro[4.5]dec-1-ene-8-sulfonyl}-ethyl)-benzamide] | 62
13 | Cc1cc(C(=O)N2CCC(C)(O)CC2)cc(C)c1/C=C/S(=O)(=O)N1CCC2(CC1)N=C(c1ccc(F)c(OCCCC(F)(F)F)c1)NC2=O [Compound 1218, 2-[4-fluoro-3-(4,4,4-trifluoro-butoxy)-phenyl]-8-{(E)-2-[4-(4-hydroxy-4-methyl-piperidine-1-carbonyl)-2,6-dimethyl-phenyl]-ethenesulfonyl}-1,3,8-triaza-spiro[4.5]dec-1-en-4-one] | 90
14 | Cc1cc(N2C(=O)C(C)C[C@@H]2CO)cc(C)c1/C=C/S(=O)(=O)N1CCC2(CC1)N=C(c1cccc(OC(F)(F)F)c1)NC2=O (stereo partly drawn) [Compound 713, 8-{(E)-2-[4-((R)-5-hydroxymethyl-3-methyl-2-oxo-pyrrolidin-1-yl)-2,6-dimethyl-phenyl]-ethenesulfonyl}-2-(3-trifluoromethoxy-phenyl)-1,3,8-triaza-spiro[4.5]dec-1-en-4-one] | 55

Other lines, results leading:

Row | cAMP production activity (%) | SMILES
15 | 61 | C=CCCCCCCCC(=O)N(C)c1cc(C)c(CCS(=O)(=O)N2CCC3(CC2)N=C(CCCCC=C)NC3=O)c(C)c1 [Compound 1443, dec-9-enoic acid {4-[2-(2-hex-5-enyl-4-oxo-1,3,8-triaza-spiro[4.5]dec-1-ene-8-sulfonyl)-ethyl]-3,5-dimethyl-phenyl}-methyl-amide]
16 | 92 | CC(=O)N(C)Cc1cc(C)c(CCS(=O)(=O)N2CCC3(CC2)N=C(C2CCC(C)CC2)NC3=O)c(C)c1 (stereo not drawn) [Compound 785, N-(3,5-dimethyl-4-{2-[2-(4-methyl-cyclohexyl)-4-oxo-1,3,8-triaza-spiro[4.5]dec-1-ene-8-sulfonyl]-ethyl}-benzyl)-N-methyl-acetamide]
17 | 101 | CC(=O)N(CCOCCO)c1cc(C)c(/C=C/S(=O)(=O)N2CCC3(CC2)N=C(C2CCC(CCC(F)(F)F)CC2)NC3=O)c(C)c1 (stereo not drawn) [Compound 699, N-[3,5-Dimethyl-4-((E)-2-{4-oxo-2-[4-(3,3,3-trifluoro-propyl)-cyclohexyl]-1,3,8-triaza-spiro[4.5]dec-1-ene-8-sulfonyl}-vinyl)-phenyl]-N-[2-(2-hydroxy-ethoxy)-ethyl]-acetamide]
18 | 45 | CC1CCC(C2=NC3(CCN(S(=O)(=O)CCc4cccc5[nH]ccc45)CC3)C(=O)N2)CC1 (stereo not drawn) [Compound 306, 8-[2-(1H-indol-4-yl)-ethanesulfonyl]-2-(4-methyl-cyclohexyl)-1,3,8-triaza-spiro[4.5]dec-1-en-4-one]
19 | 0.8 | CCCc1ccc(-c2cccc(C3=NC4(CCN(S(=O)(=O)CCc5c(C)cc(N(C)C(N)=O)cc5C)CC4)C(=O)N3)c2)cc1 [Compound 1152, 1-(3,5-Dimethyl-4-{2-[4-oxo-2-(4′-propyl-biphenyl-3-yl)-1,3,8-triaza-spiro[4.5]dec-1-ene-8-sulfonyl]-ethyl}-phenyl)-1-methyl-urea]
20 | 115 | Cc1cc(N(C)C(N)=O)cc(C)c1CCS(=O)(=O)N1CCC2(CC1)N=C(c1ccc(C(C)(C)C)cc1)NC2=O [Compound 1030, 1-(4-{2-[2-(4-tert-butyl-phenyl)-4-oxo-1,3,8-triaza-spiro[4.5]dec-1-ene-8-sulfonyl]-ethyl}-3,5-dimethyl-phenyl)-1-methyl-urea]
21 | 85 | Cc1cc(C(=O)N(C)C)ccc1CCS(=O)(=O)N1CCC2(CC1)N=C(C1CCC(CCCC(F)(F)F)CC1)NC2=O (stereo not drawn) [Compound 897, 3,N,N-trimethyl-4-(2-{4-oxo-2-[4-(4,4,4-trifluoro-butyl)-cyclohexyl]-1,3,8-triaza-spiro[4.5]dec-1-ene-8-sulfonyl}-ethyl)-benzamide]
22 | 61 | CC(=O)Nc1cccc(C)c1/C=C/S(=O)(=O)N1CCC2(CC1)N=C(C1CCCCC1)NC2=O [Compound 190, N-{2-[(E)-2-(2-cyclohexyl-4-oxo-1,3,8-triaza-spiro[4.5]dec-1-ene-8-sulfonyl)-vinyl]-3-methyl-phenyl}-acetamide]
23 | 67 | Cc1cc(C(=O)N(C)C)ccc1CCS(=O)(=O)N1CCC2(CC1)N=C(Cc1cccc(C(F)(F)F)c1)NC2=O [Compound 135, 3,N,N-trimethyl-4-{2-[4-oxo-2-(3-trifluoromethyl-benzyl)-1,3,8-triaza-spiro[4.5]dec-1-ene-8-sulfonyl]-ethyl}-benzamide]
24 | 79 | Cc1cc(C(=O)O)cc(C)c1CCS(=O)(=O)N1CCC2(CC1)N=C(C1CCC(CCC(F)(F)F)CC1)NC2=O (stereo not drawn) [Compound 768, 3,5-dimethyl-4-(2-{4-oxo-2-[4-(3,3,3-trifluoro-propyl)-cyclohexyl]-1,3,8-triaza-spiro[4.5]dec-1-ene-8-sulfonyl}-ethyl)-benzoic acid]

From US9169254B2, “Spiroimidazolone derivative” (Chugai Seiyaku Kabushiki Kaisha, priority 2009, dated 2015)
